Reference: US20210188813A1, “EZH2 INHIBITOR AND PHARMACEUTICALLY ACCEPTABLE SALTS AND POLYMORPHIC SUBSTANCES THEREOF, AND APPLICATION OF EZH2 INHIBITOR” (SHANGHAI HAIYAN PHARMACEUTICAL TECHNOLOGY CO., LTD., priority 2018, published 2021)

How the values were obtained:
[1] = Solid state stability experiment; type: physicochemical
From the text: Detected changes in crystal form and purity at 4 and 7 days.

[2] = Dynamic solubility experiment; type: physicochemical; details: for Solubility: room temperature, 24 h
From the text: The free base samples and the two crystal forms were plotted separately in the experiment.

[3] = 60° C. and 40° C./75% RH, 4 and 7 days

CCc1c(C(=O)NCc2c(C)cc(C)[nH]c2=O)cc2c(cnn2C)c1N(CC)[C@H]1CC[C@H](N2CC(OC)C2)CC1.Cl [Crystal form A]
Content (%) ([1]; 4° C. 0 d): 96.62% | Properties ([1]; 4° C. 0 d): Dark yellow | RRT(%) 0.86 ([1]; 4° C. 0 d): 0.21% | RRT(%) 0.89 ([1]; 4° C. 0 d): 0.11% | RRT(%) 0.94 ([1]; 4° C. 0 d): 0.31% | RRT(%) 0.97 ([1]; 4° C. 0 d): 0.09% | RRT(%) 1.04 ([1]; 4° C. 0 d): 0.42% | RRT(%) 1.07 ([1]; 4° C. 0 d): 0.67% | RRT(%) 1.10 ([1]; 4° C. 0 d): 0.42% | RRT(%) 1.13 ([1]; 4° C. 0 d): 0.18% | RRT(%) 1.15 ([1]; 4° C. 0 d): 0.38% | RRT(%) 1.16 ([1]; 4° C. 0 d): 0.60% | Total impurities (%) ([1]; 4° C. 0 d): 3.38% | Content (%) ([1]; 40° C./75% RH 4 d): 96.34% | Properties ([1]; 40° C./75% RH 4 d): Dark yellow | RRT(%) 0.86 ([1]; 40° C./75% RH 4 d): 0.21% | RRT(%) 0.89 ([1]; 40° C./75% RH 4 d): 0.09% | RRT(%) 0.94 ([1]; 40° C./75% RH 4 d): 0.28% | RRT(%) 0.97 ([1]; 40° C./75% RH 4 d): 0.09% | RRT(%) 1.04 ([1]; 40° C./75% RH 4 d): 0.49% | RRT(%) 1.07 ([1]; 40° C./75% RH 4 d): 0.75% | RRT(%) 1.10 ([1]; 40° C./75% RH 4 d): 0.51% | RRT(%) 1.13 ([1]; 40° C./75% RH 4 d): 0.19% | RRT(%) 1.15 ([1]; 40° C./75% RH 4 d): 0.41% | RRT(%) 1.16 ([1]; 40° C./75% RH 4 d): 0.60% | RRT(%) 1.20 ([1]; 40° C./75% RH 4 d): 0.07% | Total impurities (%) ([1]; 40° C./75% RH 4 d): 3.66% | Content (%) ([1]; 40° C./75% RH 7 d): 96.60% | Properties ([1]; 40° C./75% RH 7 d): Dark yellow | RRT(%) 0.86 ([1]; 40° C./75% RH 7 d): 0.22% | RRT(%) 0.89 ([1]; 40° C./75% RH 7 d): 0.09% | RRT(%) 0.94 ([1]; 40° C./75% RH 7 d): 0.31% | RRT(%) 0.97 ([1]; 40° C./75% RH 7 d): 0.09% | RRT(%) 1.04 ([1]; 40° C./75% RH 7 d): 0.47% | RRT(%) 1.07 ([1]; 40° C./75% RH 7 d): 0.75% | RRT(%) 1.10 ([1]; 40° C./75% RH 7 d): 0.32% | RRT(%) 1.13 ([1]; 40° C./75% RH 7 d): 0.11% | RRT(%) 1.15 ([1]; 40° C./75% RH 7 d): 0.38% | RRT(%) 1.16 ([1]; 40° C./75% RH 7 d): 0.59% | Total impurities (%) ([1]; 40° C./75% RH 7 d): 3.40% | solid state stability ([1]; 40° C./75% RH, 4 and 7 days): stable | Content (%) ([1]; 60° C. 4 d): 85.19% | Properties ([1]; 60° C. 4 d): Dark yellow | RRT(%) 0.86 ([1]; 60° C. 4 d): 0.15% | RRT(%) 0.89 ([1]; 60° C. 4 d): 0.14% | RRT(%) 0.94 ([1]; 60° C. 4 d): 0.67% | RRT(%) 0.97 ([1]; 60° C. 4 d): 0.56% | RRT(%) 1.04 ([1]; 60° C. 4 d): 1.25% | RRT(%) 1.07 ([1]; 60° C. 4 d): 10.65% | RRT(%) 1.10 ([1]; 60° C. 4 d): 0.29% | RRT(%) 1.13 ([1]; 60° C. 4 d): 0.08% | RRT(%) 1.15 ([1]; 60° C. 4 d): 0.44% | RRT(%) 1.16 ([1]; 60° C. 4 d): 0.52% | RRT(%) 1.20 ([1]; 60° C. 4 d): 0.05% | Total impurities (%) ([1]; 60° C. 4 d): 14.81% | Content (%) ([1]; 60° C. 7 d): 75.90% | Properties ([1]; 60° C. 7 d): Dark yellow | RRT(%) 0.86 ([1]; 60° C. 7 d): 0.11% | RRT(%) 0.89 ([1]; 60° C. 7 d): 0.07% | RRT(%) 0.92 ([1]; 60° C. 7 d): 0.22% | RRT(%) 0.94 ([1]; 60° C. 7 d): 0.63% | RRT(%) 0.97 ([1]; 60° C. 7 d): 0.66% | RRT(%) 1.04 ([1]; 60° C. 7 d): 1.28% | RRT(%) 1.07 ([1]; 60° C. 7 d): 19.89% | RRT(%) 1.10 ([1]; 60° C. 7 d): 0.21% | RRT(%) 1.13 ([1]; 60° C. 7 d): 0.05% | RRT(%) 1.15 ([1]; 60° C. 7 d): 0.38% | RRT(%) 1.16 ([1]; 60° C. 7 d): 0.51% | RRT(%) 1.20 ([1]; 60° C. 7 d): 0.09% | Total impurities (%) ([1]; 60° C. 7 d): 24.10% | change in crystal form on storage [1, 3]: the crystal form has not changed | change of impurities ([1]; 60° C., 4 and 7 days): the impurities increase obviously | Phenomenon ([2]; 0.1M HCl): clear | Solubility ([2]; 0.1M HCl): ≥62.8 mg/mL | Phenomenon ([2]; H2O): clear | Solubility ([2]; H2O): ≥81.4 mg/mL | Phenomenon ([2]; pH 4.5 buffer): clear | Solubility ([2]; pH 4.5 buffer): ≥43.8 mg/mL | Phenomenon ([2]; pH 6.8 buffer): clear | Solubility ([2]; pH 6.8 buffer): ≥74.6 mg/mL

CCc1c(C(=O)NCc2c(C)cc(C)[nH]c2=O)cc2c(cnn2C)c1N(CC)[C@H]1CC[C@H](N2CC(OC)C2)CC1.O=C(O)/C=C\C(=O)O [Crystal form B]
Content (%) ([1]; 4° C. 0 d): 96.94% | Properties ([1]; 4° C. 0 d): Off-white | RRT(%) 0.86 ([1]; 4° C. 0 d): 0.19% | RRT(%) 0.89 ([1]; 4° C. 0 d): 0.09% | RRT(%) 0.92 ([1]; 4° C. 0 d): 0.05% | RRT(%) 0.94 ([1]; 4° C. 0 d): 0.17% | RRT(%) 1.04 ([1]; 4° C. 0 d): 0.51% | RRT(%) 1.07 ([1]; 4° C. 0 d): 0.43% | RRT(%) 1.10 ([1]; 4° C. 0 d): 0.38% | RRT(%) 1.13 ([1]; 4° C. 0 d): 0.21% | RRT(%) 1.15 ([1]; 4° C. 0 d): 0.40% | RRT(%) 1.16 ([1]; 4° C. 0 d): 0.64% | Total impurities (%) ([1]; 4° C. 0 d): 3.06% | Content (%) ([1]; 40° C./75% RH 4 d): 96.88% | Properties ([1]; 40° C./75% RH 4 d): Off-white | RRT(%) 0.86 ([1]; 40° C./75% RH 4 d): 0.20% | RRT(%) 0.89 ([1]; 40° C./75% RH 4 d): 0.08% | RRT(%) 0.92 ([1]; 40° C./75% RH 4 d): 0.05% | RRT(%) 0.94 ([1]; 40° C./75% RH 4 d): 0.16% | RRT(%) 1.04 ([1]; 40° C./75% RH 4 d): 0.45% | RRT(%) 1.07 ([1]; 40° C./75% RH 4 d): 0.40% | RRT(%) 1.10 ([1]; 40° C./75% RH 4 d): 0.47% | RRT(%) 1.13 ([1]; 40° C./75% RH 4 d): 0.20% | RRT(%) 1.15 ([1]; 40° C./75% RH 4 d): 0.41% | RRT(%) 1.16 ([1]; 40° C./75% RH 4 d): 0.63% | RRT(%) 1.20 ([1]; 40° C./75% RH 4 d): 0.07% | Total impurities (%) ([1]; 40° C./75% RH 4 d): 3.12% | Content (%) ([1]; 40° C./75% RH 7 d): 96.95% | Properties ([1]; 40° C./75% RH 7 d): Off-white | RRT(%) 0.86 ([1]; 40° C./75% RH 7 d): 0.25% | RRT(%) 0.89 ([1]; 40° C./75% RH 7 d): 0.07% | RRT(%) 0.92 ([1]; 40° C./75% RH 7 d): 0.05% | RRT(%) 0.94 ([1]; 40° C./75% RH 7 d): 0.16% | RRT(%) 1.04 ([1]; 40° C./75% RH 7 d): 0.45% | RRT(%) 1.07 ([1]; 40° C./75% RH 7 d): 0.41% | RRT(%) 1.10 ([1]; 40° C./75% RH 7 d): 0.44% | RRT(%) 1.13 ([1]; 40° C./75% RH 7 d): 0.20% | RRT(%) 1.15 ([1]; 40° C./75% RH 7 d): 0.41% | RRT(%) 1.16 ([1]; 40° C./75% RH 7 d): 0.63% | Total impurities (%) ([1]; 40° C./75% RH 7 d): 3.05% | Content (%) ([1]; 60° C. 4 d): 97.34% | Properties ([1]; 60° C. 4 d): Off-white | RRT(%) 0.86 ([1]; 60° C. 4 d): 0.14% | RRT(%) 0.89 ([1]; 60° C. 4 d): 0.06% | RRT(%) 0.94 ([1]; 60° C. 4 d): 0.26% | RRT(%) 1.04 ([1]; 60° C. 4 d): 0.36% | RRT(%) 1.07 ([1]; 60° C. 4 d): 0.43% | RRT(%) 1.10 ([1]; 60° C. 4 d): 0.32% | RRT(%) 1.13 ([1]; 60° C. 4 d): 0.13% | RRT(%) 1.15 ([1]; 60° C. 4 d): 0.39% | RRT(%) 1.16 ([1]; 60° C. 4 d): 0.59% | Total impurities (%) ([1]; 60° C. 4 d): 2.66% | Content (%) ([1]; 60° C. 7 d): 97.30% | Properties ([1]; 60° C. 7 d): Off-white | RRT(%) 0.86 ([1]; 60° C. 7 d): 0.16% | RRT(%) 0.89 ([1]; 60° C. 7 d): 0.05% | RRT(%) 0.94 ([1]; 60° C. 7 d): 0.29% | RRT(%) 1.04 ([1]; 60° C. 7 d): 0.35% | RRT(%) 1.07 ([1]; 60° C. 7 d): 0.44% | RRT(%) 1.10 ([1]; 60° C. 7 d): 0.29% | RRT(%) 1.13 ([1]; 60° C. 7 d): 0.13% | RRT(%) 1.15 ([1]; 60° C. 7 d): 0.40% | RRT(%) 1.16 ([1]; 60° C. 7 d): 0.60% | Total impurities (%) ([1]; 60° C. 7 d): 2.70% | change in crystal form on storage [1, 3]: the crystal form has not changed | solid state stability [1, 3]: good stability | Phenomenon ([2]; 0.1M HCl): clear | Solubility ([2]; 0.1M HCl): ≥30.4 mg/mL | Final pH ([2]; H2O): 5.06 | Phenomenon ([2]; H2O): turbid | Solubility ([2]; H2O): 3.13 mg/mL | Final pH ([2]; pH 4.5 buffer): 4.91 | Phenomenon ([2]; pH 4.5 buffer): clear | Solubility ([2]; pH 4.5 buffer): ≥3.07 mg/mL | Final pH ([2]; pH 6.8 buffer): 6.53 | Phenomenon ([2]; pH 6.8 buffer): clear | Solubility ([2]; pH 6.8 buffer): ≥3.72 mg/mL
